Results published in patent US20240041042A1, “1-(PYRIDYL)-5-AZINYLPYRAZOLE DERIVATIVES, AND THEIR USE FOR CONTROL OF UNDESIRED PLANT GROWTH” (Bayer Aktiengesellschaft, priority 2020, published 2024).

How the values were obtained:
Assay type in all cases: in vivo
[1] = system: Abutilon theophrasti (ABUTH); experiment: Pre-emergence herbicidal action against ABUTH; settings: 100% = plants have died
Method in brief: (§1)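 Read-out is visual percent damage relative to untreated pots, with 100% meaning dead plants and 0% meaning no difference, assessed roughly three weeks after treatment. Compounds were applied pre-emergence to the covering soil at up to 320 g/ha.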

[2] = system: Alopecurus myosuroides (ALOMY); experiment: Post-emergence herbicidal action against ALOMY; settings: visual rating about 3 weeks after treatment vs untreated controls (100% = plants have died, 0% = like control plants)
Method in brief: (§2)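 Post-emergence greenhouse spray, one-leaf stage, 600 l/ha water plus 0.5% additive; WP or EC formulations; application rates 320 g/ha or lower. Visual % damage vs untreated controls at ~3 weeks.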

[3] = system: Alopecurus myosuroides (ALOMY); experiment: Pre-emergence herbicidal action against ALOMY; settings: scored visually after about 3 weeks, 100% = plants have died
Method in brief: as §1

[4] = system: Polygonum convolvulus (POLCO); experiment: Pre-emergence herbicidal action against POLCO
Method in brief: as §1

[5] = system: Amaranthus retroflexus (AMARE); experiment: Post-emergence herbicidal action against AMARE
Method in brief: as §2

[6] = system: Matricaria inodora (MATIN); experiment: Pre-emergence herbicidal action against MATIN
Method in brief: as §1

[7] = system: Abutilon theophrasti (ABUTH); experiment: Post-emergence herbicidal action against ABUTH; settings: visual rating about 3 weeks after treatment vs untreated controls (100% = plants have died, 0% = like control plants)
Method in brief: as §2

[8] = system: Amaranthus retroflexus (AMARE); experiment: Pre-emergence herbicidal action against AMARE; settings: visual scoring after about 3 weeks vs untreated controls
Method in brief: as §1

Lolium rigidum (LOLRI) = experiment: Post-emergence herbicidal action against LOLRI
Method in brief: as §2

[9] = system: Polygonum convolvulus (POLCO); experiment: Post-emergence herbicidal action against POLCO
Method in brief: as §2

[10] = Dosage column 320 g/ha (title prints 3200 g/ha), scored visually after about 3 weeks
[11] = 80 g/ha, visual rating about 3 weeks after treatment vs untreated controls (100% = plants have died, 0% = like control plants)
[12] = 320 g/ha, visual rating about 3 weeks after treatment
[13] = 80 g/ha, scored visually after about 3 weeks vs untreated controls, 0% = like control plants

Row | SMILES | Pre-emergence action against ABUTH [1, 10] [%] | Post-emergence action against ALOMY in % ([2]; 80 g/ha) [%] | Post-emergence action against ALOMY in % ([2]; 320 g/ha) [%] | Pre-emergence action against ALOMY ([3]; 80 g/ha) [%] | Pre-emergence action against ALOMY ([3]; 320 g/ha) [%] | Pre-emergence action against POLCO in % ([4]; dosage 80 g/ha) [%] | Pre-emergence action against POLCO in % ([4]; dosage 320 g/ha) [%] | Post-emergence action against AMARE in % [5, 11] [%] | Post-emergence action against AMARE in % [5, 12] [%] | Pre-emergence action against MATIN in % ([6]; dosage 80 g/ha) [%] | Pre-emergence action against MATIN in % ([6]; dosage 320 g/ha) [%] | Post-emergence action against ABUTH in % ([7]; 80 g/ha) [%] | Post-emergence action against ABUTH in % ([7]; 320 g/ha) [%] | Pre-emergence action against AMARE in % ([8]; 80 g/ha) [%] | Pre-emergence action against AMARE in % ([8]; 320 g/ha) [%] | Post-emergence action against LOLRI in % (Lolium rigidum (LOLRI); dosage 80 g/ha) [%] | Post-emergence action against LOLRI in % (Lolium rigidum (LOLRI); dosage 320 g/ha) [%] | Post-emergence action against POLCO in % ([9]; dosage 80 g/ha) [%] | Post-emergence action against POLCO in % ([9]; dosage 320 g/ha) [%] | Pre-emergence action against ABUTH [1, 13] [%]
1 | COC(=O)[C@@H](C)Oc1nn(-c2nc(F)ccc2F)c(-c2cncc(F)c2)c1Br [Example I-191] | 90 | 80 | 90 | 80 | 90 | 80 | 90 | 80 | 80 | 90 | 90 | 80 | 80 | 90 | 100 | 90 | 90 |  |  | 
2 | O=C(O)COc1nn(-c2ncccc2F)c(-c2ccc(F)nc2)c1Br [Example I-17] | 90 | 90 | 90 | 100 | 100 | 90 | 100 |  |  | 90 | 100 |  |  | 100 | 100 |  | 80 |  |  | 
3 | CCOC(=O)COc1nn(-c2ccccn2)c(-c2ccc(F)nc2)c1Br [Example I-02] |  | 80 | 100 | 100 | 90 | 80 | 80 | 80 | 80 |  | 100 | 80 | 80 | 100 | 100 | 80 | 80 | 80 | 80 | 
4 | O=C(O)COc1nn(-c2ccccn2)c(-c2cncnc2)c1Br [Example I-66] |  | 100 | 100 | 100 | 100 | 90 | 90 | 80 | 90 |  | 90 |  | 80 | 90 | 100 |  | 90 | 80 | 90 | 
5 | COC(=O)C(C)COC(=O)C(C)Oc1nn(-c2ccccn2)c(-c2ccc(F)nc2)c1Cl (stereo not shown) [Example I-291] |  | 80 | 80 | 100 | 100 | 80 | 90 | 80 | 80 |  | 90 |  | 80 | 80 | 100 | 80 | 80 | 80 | 80 | 
6 | COC(=O)[C@@H](C)Oc1nn(-c2ccccn2)c(-c2cncc(F)c2)c1Cl [Example I-189] | 90 | 80 | 90 | 80 | 90 | 100 | 100 |  |  | 90 | 100 |  |  | 100 | 100 | 100 | 100 |  |  | 80
7 | C[C@@H](Oc1nn(-c2nc(F)ccc2F)c(-c2cncc(F)c2)c1C1CC1)C(=O)O [Example I-180] | 80 | 90 | 90 | 90 | 100 | 90 | 100 |  | 90 | 90 | 90 |  |  | 100 | 100 | 90 | 90 | 80 | 90 | 
8 | COC(=O)C(C)NC(=O)[C@@H](C)Oc1nn(-c2ccccn2)c(-c2cncc(F)c2)c1Cl (stereo partly shown) [Example I-199] | 90 |  | 90 | 90 | 90 | 80 | 90 | 80 | 90 | 90 | 100 |  | 80 | 100 | 100 | 90 | 90 |  |  | 80
9 | COC(=O)COc1nn(-c2nc(F)ccc2F)c(-c2cncc(F)c2)c1C1CC1 [Example I-164] | 80 | 100 | 100 | 100 | 100 |  | 100 |  |  | 90 | 100 |  |  | 100 | 100 | 80 | 90 |  |  | 
10 | O=C(O)COc1nn(-c2nc(F)ccc2F)c(-c2cncc(F)c2)c1C1CC1 [Example I-148] |  | 80 | 90 | 100 | 100 | 80 | 90 |  |  | 90 | 90 |  |  | 100 | 100 | 80 | 80 |  |  | 
11 | COC(=O)[C@@H](C)COC(=O)COc1nn(-c2ccccn2)c(-c2cncc(F)c2)c1Br [Example I-194] | 80 | 90 | 90 | 80 | 100 | 80 | 100 | 80 | 90 | 90 | 90 |  | 80 | 100 | 100 | 80 | 90 |  |  | 
12 | COC(=O)C(C)COC(=O)[C@@H](C)Oc1nn(-c2ccccn2)c(-c2cncc(F)c2)c1Cl (stereo partly shown) [Example I-198] | 90 | 80 | 80 | 80 | 90 | 90 | 90 | 80 | 90 | 90 | 90 | 80 | 80 | 100 | 100 | 80 | 80 |  |  | 
13 | CCOC(=O)COc1nn(-c2nc(F)ccc2F)c(-c2cncc(F)c2)c1C1CC1 [Example I-149] | 80 | 80 | 90 | 90 | 100 | 80 | 90 |  |  | 90 | 90 |  |  | 90 | 100 | 80 | 90 |  | 80 | 
14 | C[C@@H](Oc1nn(-c2ncccc2F)c(-c2ccc(F)nc2)c1Br)C(=O)O [Example I-18] | 90 | 90 | 100 | 100 | 100 | 100 | 100 |  |  | 100 | 100 |  | 80 | 100 | 100 |  | 80 |  |  | 80
